Laboratory results as given in US20240417395A1, “DUAL ANTAGONIST AND USE THEREOF” (NICOYA THERAPEUTICS (SHANGHAI) CO., LTD, priority 2021, published 2024).
Read-outs that look alike come from different tables or passages of the source.

Tests used:
CYP2C8 = CYP2C8 (Homo sapiens (Human), UniProt P10632); experiment: Inhibition of cytochrome P450 isozyme CYP2C8; assay type: in vitro ADME; settings: for IC50: recombinant enzyme
Method: (§1) A total of six specific probe substrates of six isozymes of CYPs, i.e., α-Naphthoflavone (CYP1A2), Sulphaphenazole (CYP2C9), Ticlopidine (CYP2C19), Quinidine (CYP2D6), Ketoconazole (CYP3A4), and Montelukast (CYP2C8) were co-incubated with recombinant hepatic drug enzymes CYP1A2, CYP2C9, CYP2C19, CYP2D6, CYP3A4, and CYP2C8 and test compounds, respectively. Nicotinamide adenine dinucleotide phosphate (NADP+), D-glucose-6-phosphate (G6P) and glucose-6-phosphate dehydrogenase (G6DHP) were added to start the reaction. At the end of the reaction, the corresponding half maximal inhibitory concentrations (IC50) were calculated by the fluorescence detection method (Ex490 nm/Em520 nm).

CYP1A2 = CYP1A2 (Homo sapiens (Human), UniProt P05177); experiment: Inhibition of cytochrome P450 isozyme CYP1A2; assay type: in vitro ADME; settings: for IC50: recombinant enzyme
Method: as §1

CYP2C9 = CYP2C9 (Homo sapiens (Human), UniProt P11712); experiment: Inhibition of cytochrome P450 isozyme CYP2C9; assay type: in vitro ADME; settings: for IC50: recombinant enzyme
Method: as §1

CYP2C19 = CYP2C19 (Homo sapiens (Human), UniProt P33261); experiment: Inhibition of cytochrome P450 isozyme CYP2C19; assay type: in vitro ADME; settings: for IC50: recombinant enzyme
Method: as §1

AT1 = AT1 (Homo sapiens (Human), UniProt P30556); experiment: Calcium flux assay on AT1 cell line; assay type: cell-based; settings: AT1/HEK293, calcium flux, angiotensin II agonist
Method: Test materials: a) cell line: AT1/HEK293; b) vehicles: F12, Invitrogen (Cat #11765-047); FBS, Corning (Cat #35-076-CV); Geneticin, Invitrogen (Cat #10131); c) reagent: Fluo-4 Direct, (Invitrogen, Cat #F10471); d) instruments: 384 well Poly-D-Lysine protein coating plate, Greiner #781946; Vi-cell XR Cell Viability Analyzer, Beckman Coulter; Incubator, Thermo.
For the agonist (angiotensin II) master plate, the agonist solution was diluted from 1 mM to 200 μM with the test buffer solution. […] Afterwards, 900 nL of each compound solution was transferred to the master plate and 30 μL of the test buffer solution was added. • a) The cell plate was removed from the incubator, and 20 μL of 2X Fluo-4 Direct was added by a pipette to a 384-well cell plate. • b) The cell plate was incubated at 37° C. for 50 min in the environment of 5% CO2, and then incubated at room temperature for 10 min. • c) The cell plate was removed from the incubator and placed in FLIPR. The compound plates and the tip box were placed in FLIPR. • d) Regarding the EC80 plate: • 1) Operations were conducted on […]. • 2) 10 μL of compound solution was transferred from the EC80 master plate to the cell plate. • 3) Fluorescence signals were read. • 4) The read signals were counted, and the EC80 value of each cell line was calculated using FLIPR. • 5) For the concentration of the compound plate, a solution having a concentration 6 times that of the reference agonist EC80 was formulated. • e) Regarding the compound plate: • 1) Operations were conducted on […]. • 2) 10 μL of compound was transferred to the cell plate. • 3) Fluorescence signals were read. • 4) 10 μL of solution having a concentration 6 times that of the reference agonist EC80 was transferred. • 5) Fluorescence signals were read. • f) Data analysis by Prism

[1] = fluorescence detection, read-out: IC50 CYP2C8
[2] = fluorescence detection, read-out: IC50 CYP1A2
[3] = fluorescence detection, read-out: IC50 CYP2C9
[4] = fluorescence detection, read-out: IC50 CYP2C19
[5] = read-out: IC50 activity against AT1 (class)

CYP1A2, sequence (P05177 whole entry): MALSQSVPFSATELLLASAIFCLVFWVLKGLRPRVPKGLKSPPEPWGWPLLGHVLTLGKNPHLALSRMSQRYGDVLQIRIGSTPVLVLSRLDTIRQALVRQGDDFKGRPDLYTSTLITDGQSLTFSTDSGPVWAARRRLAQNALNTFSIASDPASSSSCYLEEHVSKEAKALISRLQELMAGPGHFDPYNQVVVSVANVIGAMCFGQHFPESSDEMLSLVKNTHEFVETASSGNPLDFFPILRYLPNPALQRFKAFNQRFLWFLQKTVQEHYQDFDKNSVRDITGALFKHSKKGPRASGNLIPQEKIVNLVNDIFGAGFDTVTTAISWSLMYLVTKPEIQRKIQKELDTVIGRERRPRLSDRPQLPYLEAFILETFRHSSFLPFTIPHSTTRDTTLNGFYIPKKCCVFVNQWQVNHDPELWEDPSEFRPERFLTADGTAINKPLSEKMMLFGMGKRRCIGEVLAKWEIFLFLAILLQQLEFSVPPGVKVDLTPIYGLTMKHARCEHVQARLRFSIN
CYP2C9, sequence (P11712 whole entry): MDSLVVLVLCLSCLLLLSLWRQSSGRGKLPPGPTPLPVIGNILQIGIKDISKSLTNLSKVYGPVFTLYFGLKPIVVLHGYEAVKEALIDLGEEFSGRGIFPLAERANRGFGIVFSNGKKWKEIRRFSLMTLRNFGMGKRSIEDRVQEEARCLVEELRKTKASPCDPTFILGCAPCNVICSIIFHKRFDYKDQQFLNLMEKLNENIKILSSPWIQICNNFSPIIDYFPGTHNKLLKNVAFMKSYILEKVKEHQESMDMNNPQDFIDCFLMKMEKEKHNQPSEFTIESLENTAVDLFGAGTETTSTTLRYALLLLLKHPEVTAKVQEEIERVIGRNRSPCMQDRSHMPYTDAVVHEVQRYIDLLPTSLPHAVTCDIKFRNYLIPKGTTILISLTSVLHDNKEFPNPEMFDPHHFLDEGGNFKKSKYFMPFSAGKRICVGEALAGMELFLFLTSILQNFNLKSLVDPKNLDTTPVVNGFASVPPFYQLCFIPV
AT1, sequence (P30556 whole entry): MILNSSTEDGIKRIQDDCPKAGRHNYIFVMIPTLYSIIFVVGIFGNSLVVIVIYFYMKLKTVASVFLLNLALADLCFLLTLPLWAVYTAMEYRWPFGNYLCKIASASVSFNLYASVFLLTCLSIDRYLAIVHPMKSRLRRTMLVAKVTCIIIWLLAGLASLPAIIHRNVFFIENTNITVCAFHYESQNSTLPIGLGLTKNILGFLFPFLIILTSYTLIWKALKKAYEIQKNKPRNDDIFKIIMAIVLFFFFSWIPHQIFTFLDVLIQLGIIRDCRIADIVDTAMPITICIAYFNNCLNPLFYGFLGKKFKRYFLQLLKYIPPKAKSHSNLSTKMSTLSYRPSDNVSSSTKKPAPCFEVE
CYP2C19, sequence (P33261 whole entry): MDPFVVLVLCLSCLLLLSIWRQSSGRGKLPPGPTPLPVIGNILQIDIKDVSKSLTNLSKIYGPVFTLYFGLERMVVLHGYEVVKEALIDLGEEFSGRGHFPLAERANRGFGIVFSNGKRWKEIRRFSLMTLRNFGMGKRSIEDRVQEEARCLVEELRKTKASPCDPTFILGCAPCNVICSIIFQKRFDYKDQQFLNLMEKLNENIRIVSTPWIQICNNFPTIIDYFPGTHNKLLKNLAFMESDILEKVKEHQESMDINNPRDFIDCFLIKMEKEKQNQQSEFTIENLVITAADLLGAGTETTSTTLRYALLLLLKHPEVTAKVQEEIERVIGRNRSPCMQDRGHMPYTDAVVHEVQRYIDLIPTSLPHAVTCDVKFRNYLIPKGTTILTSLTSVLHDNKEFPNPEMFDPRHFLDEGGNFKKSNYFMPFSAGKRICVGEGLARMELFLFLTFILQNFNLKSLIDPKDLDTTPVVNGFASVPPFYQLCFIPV
CYP2C8, sequence (P10632 whole entry): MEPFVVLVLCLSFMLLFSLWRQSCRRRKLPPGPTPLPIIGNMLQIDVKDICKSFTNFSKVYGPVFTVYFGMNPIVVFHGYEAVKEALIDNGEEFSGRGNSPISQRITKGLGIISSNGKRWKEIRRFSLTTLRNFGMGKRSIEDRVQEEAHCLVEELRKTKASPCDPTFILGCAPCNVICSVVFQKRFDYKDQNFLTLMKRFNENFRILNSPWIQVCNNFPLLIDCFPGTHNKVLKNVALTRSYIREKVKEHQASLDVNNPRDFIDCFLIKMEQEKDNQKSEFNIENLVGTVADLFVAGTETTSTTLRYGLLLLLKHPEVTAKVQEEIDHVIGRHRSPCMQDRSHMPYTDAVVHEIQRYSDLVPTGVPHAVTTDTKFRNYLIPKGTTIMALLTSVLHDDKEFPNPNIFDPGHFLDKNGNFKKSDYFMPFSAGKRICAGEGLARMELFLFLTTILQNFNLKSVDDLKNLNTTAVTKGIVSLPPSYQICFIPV

Structure (SMILES) | risk of inhibiting CYP2C8 activity (conclusion in words) (CYP2C8; conclusion to Table 4) | IC50 (CYP2C8; [1]) | risk of inhibiting CYP1A2 activity (conclusion in words) (CYP1A2; conclusion to Table 4) | IC50 (CYP1A2; [2]) | risk of inhibiting CYP2C9 activity (conclusion in words) (CYP2C9; conclusion to Table 4) | IC50 (CYP2C9; [3]) | risk of inhibiting CYP2C19 activity (conclusion in words) (CYP2C19; conclusion to Table 4) | IC50 (CYP2C19; [4]) | IC50 (AT1; [5]) | IC50 (AT1; read-out: IC50 against AT1) | risk of inhibiting CYP2C8 activity (conclusion in words) (CYP2C8) | IC50 (CYP2C8) | risk of inhibiting CYP1A2 activity (conclusion in words) (CYP1A2) | IC50 (CYP1A2) | risk of inhibiting CYP2C9 activity (conclusion in words) (CYP2C9) | IC50 (CYP2C9) | risk of inhibiting CYP2C19 activity (conclusion in words) (CYP2C19) | IC50 (CYP2C19)
CCCCC1=N[C@@]2(CC3C[C@H]3C2)C(=O)N1Cc1ccc(-c2ccccc2S(=O)(=O)Nc2noc(C)c2Cl)c(COCC)c1 (some centres unmarked) [Example 7] | no risk of inhibiting | > 10 µM | no risk of inhibiting | > 10 µM | no risk of inhibiting | > 10 µM | no risk of inhibiting | > 10 µM | 0.001 to 0.01 µM | 0.00355 µM | – | – | – | – | – | – | – | –
CCCCC1=NC2(CCCC2)C(=O)N1Cc1ccc(-c2ccccc2S(=O)(=O)Nc2noc(C)c2C)c(COCC)c1 [Sparsentan, reference compound] | had an inhibitory effect | 1 to 10 µM | no risk of inhibiting | > 10 µM | no risk of inhibiting | > 10 µM | no risk of inhibiting | > 10 µM | – | 0.00979 µM | – | – | – | – | – | – | – | –
CCCCC1=N[C@@]2(CC3C[C@H]3C2)C(=O)N1Cc1ccc(-c2ccccc2S(=O)(=O)Nc2noc(C)c2C)c(COCC)c1 (some centres unmarked) [Example 3] | – | – | – | – | – | – | – | – | 0.001 to 0.01 µM | 0.00197 µM | no risk of inhibiting | > 10 µM | no risk of inhibiting | > 10 µM | no risk of inhibiting | > 10 µM | no risk of inhibiting | > 10 µM
